SMILES strings stand for the structures. Like-named read-outs stand apart in the source and are kept apart here.

Data set [1] is described as follows: Transferability into brain and clearance (radioactive accumulation in brain after intravenous injection). The note with it: rats. As for the experimental part:
Using [^123I]-2-(4′-iodophenyl)-6-methoxyimidazo[1,2-a]pyridine and [^123I]-2-(4′-fluorophenyl)-6-iodoimidazo[1,2-a]pyridine, a time course change of radioactive accumulation in brain of male Wistar rats (7-week old) was measured.
The rats were sacrificed by bleeding from abdominal artery, and brains were removed and subjected to measurement of mass of brains (hereinafter referred to as A in this Example) and further subjected to measurement of radioactivity with a single channel analyzer (detector type: SP-20 manufactured by OHYO KOKEN KOGYO Co., Ltd.) 2, 5, 30 and 60 minutes after the injection. Also, radioactivity (hereinafter referred to as B in this Example) of the rest of the whole body was measured in the same manner as above.
The same procedures as above was conducted and subjected to the same procedures as above to calculate radioactive accumulation per unit weight of a brain (% ID/g) at the respective time points were calculated.
Three animals were used for Example 15, Example 16 and Comparative Example 2 at the respective time points.

For data set [2], the target named is T1, intracerebral amyloid (aggregated Aβ1-42) (Homo sapiens, UniProt P05067).
T1 construct: Aβ1-42 (Wako) was dissolved in phosphate buffer (pH 7.4); purchased Wako
The data set can be described thus: Confirmation of imaging of amyloid in brain (autoradiogram of brain slice, amyloid injected into amygdaloid nucleus). The note with it: rat, tail vein injection, brain removed 60 minutes after injection. Format: in vivo, male Wistar rat. Here is the method: (§1) The following experiment was carried out in order to examine whether amyloid in brain can be imaged by the compound of the present invention.
(§2) (1) Aβ1-42 (Wako) was dissolved in phosphate buffer (pH 7.4) and shaken at 37° C. for 72 hours, to obtain a 1 mg/mL suspension of aggregated Aβ (hereinafter referred to as amyloid suspension in this Example).
(§3) (2) Under thiopental anesthesia, […] of the amyloid suspension was injected into an amygdaloid nucleus on one side of a male Wistar rat (7-week old). As a control, 2.5 μL of a phosphate buffered physiological saline solution (pH 7.4) was injected into an amygdaloid nucleus on the other side of the rat. The rats were examined 1 day after the injection of the amyloid suspension and the phosphate buffered physiological saline solution (pH 7.4).
(§4) This sample solution was injected under thiopental anesthesia into the rat through the tail vein (dosage: 0.5 mL, dosed radioactivity: 16 MBq equivalent).
(§5) (4) Brain was removed 60 minutes after the injection to prepare a brain slice of 10 μm in thickness with a microtome (type: CM3050S, manufactured by LEICA). The brain slice was exposed to an imaging plate for 20 hours, and then image analysis was carried out by use of a Bio-imaging Analyzer (type: BAS-2500; manufactured by FUJIFILM Corporation).

For data set [3], the system named is intracerebral amyloid (aggregated Aβ1-42). The data set is described as above. The note with it: rat, tail vein injection, brain removed 60 minutes after injection. It counts as in vivo, male Wistar rat. Here is the method:
as §1, §2, §3, §4, §5

For data set [4] the following is noted: SD rat; for radioactive distribution per unit weight, Adrenal gland, Average / radioactive distribution per unit weight, Blood, Average / radioactive distribution per unit weight, Bone, Average / radioactive distribution per unit weight, Brain, Average / radioactive distribution per unit weight, Heart, Average / radioactive distribution per unit weight, Kidney, Average / radioactive distribution per unit weight, Large intestine, Average / radioactive distribution per unit weight, Liver, Average / radioactive distribution per unit weight, Lung, Average / radioactive distribution per unit weight, Marrow, Average / radioactive distribution per unit weight, Muscle, Average / radioactive distribution per unit weight, Pancreas, Average / radioactive distribution per unit weight, Small intestine, Average / radioactive distribution per unit weight, Spleen, Average / radioactive distribution per unit weight, Stomach, Average: tail vein. As for the experimental part: 0.2 mL each of the prepared sample solution was administered under non-thiopental anesthesia into the tail vein of the above rat. The rats were sacrificed by bleeding from abdominal artery, and each organ shown in Table 4 was removed 5, 30, 60 and 180 minutes after the administration. Each removed organ was subjected to measurement of mass and radioactivity with the same method as in Example 15. Also, radioactivity of the whole body of the rat after removal of the organs (hereinafter, refers to rest of the whole body) was measured. Using these measurement results, radioactive distribution per unit weight of each organ (% ID/g) at the respective time points was calculated in accordance with the following formula (4).
Three animals were used for the experiment at the respective time points.
R^T: Radioactivity of target organ (cpm) RS: Sum of radioactivity of all the organs (cpm)
R^R: Radioactivity of the rest of the whole body (cpm)
M^T: Mass of target organ (g)

Data set [5] can be described thus: Partition coefficient based on the octanol extraction method (logPoctanol). The note with it: octanol / 10 mmol/L phosphate buffer (pH 7.4).
Description: 10 μL each of the prepared sample solution was respectively added to 2 mL of octanol, further, 2 mL of 10 mmol/L phosphate buffer (pH 7.4) was added, and stirred for 30 seconds. After the mixture was centrifuged with a low-speed centrifuge (2000 rpm×60 min.), the octanol layer and the water layer were sampled each in an amount of 1 mL, and subjected to measurement of radioactivity count with an autowell gamma system (Type: ARC-301B, manufactured by Aloka). Using the obtained radioactivity count, logPoctanol was calculated in accordance with the equation (2).
For data set [6] the following is noted: [^125I]-labeled compounds, normal mice, brain; cited from earlier work.
Data set [7] concerns the target aggregated Aβ (amyloid) from Aβ1-42 (Homo sapiens, UniProt P05067). The source says: Affinity of the present compounds with amyloid was examined by the following in vitro binding tests.
The conditions of data set [8]: International Publication No. WO03/106439; cited from earlier work.

Sequence of aggregated Aβ (amyloid) from Aβ1-42 (P05067 672-713): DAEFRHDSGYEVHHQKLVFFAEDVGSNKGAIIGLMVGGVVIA
T1 sequence (P05067 672-713): as above

Regarding `COc1ccc2nc(-c3ccc([123I])cc3)cn2c1` [[^123I]-2-(4′-iodophenyl)-6-methoxyimidazo[1,2-a]pyridine], the “Radioactive accumulation per unit weight in brain” value in data set [1] (after 2 min.) is given as 1.26 % ID/g. Besides, the “Radioactive accumulation per unit weight in brain” value in data set [1] (after 5 min.) was 0.89 % ID/g. Besides, the “Radioactive accumulation per unit weight in brain” value in data set [1] (after 30 min.) was 0.19 % ID/g. In addition, the “Radioactive accumulation per unit weight in brain” value in data set [1] (after 60 min.) amounted to 0.09 % ID/g. The “accumulation of radioactivity in amygdaloid nucleus on the side to which the amyloid suspension was injected” value in data set [2] is listed as “marked accumulation of radioactivity”. In addition, in data set [3], the “accumulation of radioactivity in amygdaloid nucleus on the side to which the physiological saline solution was injected” value is “no significant accumulation of radioactivity”. In addition, the “ratio (% ID/g at 5 minutes after the administration)/(% ID/g at 180 minutes after the administration), bone” value in data set [4] (bone) was 3. Further, in data set [4] (brain), the “ratio (% ID/g at 5 minutes after the administration)/(% ID/g at 180 minutes after the administration), brain” value came to 43. Besides, the “excretion / clearance to the outside of the body” value in data set [4] (distribution moved from small intestine to large intestine) is listed as “biliary-excreted rapidly after the administration”. Also, the “ratio (% ID/g at 5 minutes after the administration)/(% ID/g at 180 minutes after the administration), heart” value in data set [4] (heart) amounted to 12. The “ratio (% ID/g at 5 minutes after the administration)/(% ID/g at 180 minutes after the administration), lung” value in data set [4] (lung) is recorded as 7. In addition, in data set [4] (pancreas), the “ratio (% ID/g at 5 minutes after the administration)/(% ID/g at 180 minutes after the administration), pancreas” value was 8. Moreover, in data set [4] (5 min. after administration), the “radioactive distribution per unit weight, Adrenal gland, Average” value is reported as 5.163 % ID/g; the “radioactive distribution per unit weight, Blood, Average” value was found to be 0.290 % ID/g; the “radioactive distribution per unit weight, Bone, Average” value is on record as 0.223 % ID/g; the “radioactive distribution per unit weight, Brain, Average” value is given as 1.175 % ID/g. For the same compound, in data set [4] (5 min. after administration), the “radioactive distribution per unit weight, Heart, Average” value was 0.752 % ID/g; the “radioactive distribution per unit weight, Kidney, Average” value stood at 1.434 % ID/g; the “radioactive distribution per unit weight, Large intestine, Average” value was 0.122 % ID/g; the “radioactive distribution per unit weight, Liver, Average” value is given as 1.857 % ID/g. Further, in data set [4] (5 min. after administration), the “radioactive distribution per unit weight, Lung, Average” value is recorded as 1.109 % ID/g; the “radioactive distribution per unit weight, Marrow, Average” value worked out at 0.937 % ID/g; the “radioactive distribution per unit weight, Muscle, Average” value stood at 0.344 % ID/g; the “radioactive distribution per unit weight, Pancreas, Average” value was 0.709 % ID/g. Further, in data set [4] (5 min. after administration), the “radioactive distribution per unit weight, Small intestine, Average” value is recorded as 0.729 % ID/g; the “radioactive distribution per unit weight, Spleen, Average” value stood at 0.460 % ID/g; the “radioactive distribution per unit weight, Stomach, Average” value was determined as 0.203 % ID/g. Further, in data set [4] (30 min. after administration), the “radioactive distribution per unit weight, Adrenal gland, Average” value is on record as 2.364 % ID/g; the “radioactive distribution per unit weight, Blood, Average” value came to 0.240 % ID/g; the “radioactive distribution per unit weight, Bone, Average” value is reported as 0.136 % ID/g; the “radioactive distribution per unit weight, Brain, Average” value worked out at 0.220 % ID/g. Besides, in data set [4] (30 min. after administration), the “radioactive distribution per unit weight, Heart, Average” value came to 0.220 % ID/g; the “radioactive distribution per unit weight, Kidney, Average” value is on record as 2.102 % ID/g; the “radioactive distribution per unit weight, Large intestine, Average” value was 0.096 % ID/g; the “radioactive distribution per unit weight, Liver, Average” value was found to be 1.197 % ID/g. Besides, in data set [4] (30 min. after administration), the “radioactive distribution per unit weight, Lung, Average” value is listed as 0.410 % ID/g; the “radioactive distribution per unit weight, Marrow, Average” value is 0.285 % ID/g; the “radioactive distribution per unit weight, Muscle, Average” value is reported as 0.092 % ID/g; the “radioactive distribution per unit weight, Pancreas, Average” value is listed as 0.338 % ID/g. Moreover, in data set [4] (30 min. after administration), the “radioactive distribution per unit weight, Small intestine, Average” value turned out to be 3.964 % ID/g; the “radioactive distribution per unit weight, Spleen, Average” value was 0.207 % ID/g; the “radioactive distribution per unit weight, Stomach, Average” value is 1.081 % ID/g. Moreover, in data set [4] (60 min. after administration), the “radioactive distribution per unit weight, Adrenal gland, Average” value worked out at 1.775 % ID/g; the “radioactive distribution per unit weight, Blood, Average” value was 0.203 % ID/g; the “radioactive distribution per unit weight, Bone, Average” value is on record as 0.102 % ID/g; the “radioactive distribution per unit weight, Brain, Average” value was 0.111 % ID/g. In data set [4] (60 min. after administration), the “radioactive distribution per unit weight, Heart, Average” value came out at 0.134 % ID/g; the “radioactive distribution per unit weight, Kidney, Average” value stood at 1.630 % ID/g; the “radioactive distribution per unit weight, Large intestine, Average” value turned out to be 0.099 % ID/g; the “radioactive distribution per unit weight, Liver, Average” value stood at 0.836 % ID/g. Besides, in data set [4] (60 min. after administration), the “radioactive distribution per unit weight, Lung, Average” value is 0.243 % ID/g; the “radioactive distribution per unit weight, Marrow, Average” value is listed as 0.000 % ID/g; the “radioactive distribution per unit weight, Muscle, Average” value turned out to be 0.062 % ID/g; the “radioactive distribution per unit weight, Pancreas, Average” value is given as 0.247 % ID/g. Also, in data set [4] (60 min. after administration), the “radioactive distribution per unit weight, Small intestine, Average” value was found to be 5.924 % ID/g; the “radioactive distribution per unit weight, Spleen, Average” value was determined as 0.154 % ID/g; the “radioactive distribution per unit weight, Stomach, Average” value turned out to be 1.476 % ID/g. Further, in data set [4] (180 min. after administration), the “radioactive distribution per unit weight, Adrenal gland, Average” value turned out to be 0.754 % ID/g; the “radioactive distribution per unit weight, Blood, Average” value came to 0.139 % ID/g; the “radioactive distribution per unit weight, Bone, Average” value is recorded as 0.070 % ID/g; the “radioactive distribution per unit weight, Brain, Average” value came to 0.027 % ID/g. In addition, in data set [4] (180 min. after administration), the “radioactive distribution per unit weight, Heart, Average” value was determined as 0.061 % ID/g; the “radioactive distribution per unit weight, Kidney, Average” value was 0.643 % ID/g; the “radioactive distribution per unit weight, Large intestine, Average” value is 3.294 % ID/g; the “radioactive distribution per unit weight, Liver, Average” value is 0.374 % ID/g. Moreover, in data set [4] (180 min. after administration), the “radioactive distribution per unit weight, Lung, Average” value worked out at 0.163 % ID/g; the “radioactive distribution per unit weight, Marrow, Average” value is given as 0.000 % ID/g; the “radioactive distribution per unit weight, Muscle, Average” value was found to be 0.027 % ID/g; the “radioactive distribution per unit weight, Pancreas, Average” value was 0.088 % ID/g. In data set [4] (180 min. after administration), the “radioactive distribution per unit weight, Small intestine, Average” value is 2.870 % ID/g; the “radioactive distribution per unit weight, Spleen, Average” value is recorded as 0.084 % ID/g; the “radioactive distribution per unit weight, Stomach, Average” value was found to be 1.272 % ID/g. Moreover, the logPoctanol value in data set [5] came to 2.3.
Consider `CN(C)c1ccc(/C=C/c2ccc(I)cc2)cc1` [m-I-SB, (E)-4-dimethylamino-4′-iodostilbene], for which the “clearance from normal tissues” value in data set [6] was “insufficient in clearance from normal tissues”.
Take `COc1ccc2nc(-c3ccc([125I])cc3)cn2c1` [[^125I]-2 (4′-iodophenyl)-6-methoxyimidazo[1,2-a]pyridine]: the “radioactive count specifically attached to amyloid (A−B) versus concentration of amyloid” value in data set [7] (amyloid 25, 62.5, 250, 625 and 1000 nmol/L, 22° C., 3 hours, non-specific count B subtracted) is reported as “increase proportionally to the concentration of amyloid”. Moreover, the “capability of binding to amyloid” value in data set [7] (conclusion from in vitro binding test) is on record as “highly capable of binding to amyloid”.
As for `CN(C)c1ccc(-c2nc3ccc(I)cc3o2)cc1` [IBOX, 6-iodo-2-[4′-(N,N-dimethylamino)phenyl]benzoxazole], the “clearance from normal tissues” value in data set [6] is given as “insufficient in clearance from normal tissues”.
`CC(=C(C#N)C#N)c1ccc2cc(N(C)CCF)ccc2c1` [FDDNP, 2-(1-{6-[(2-fluoroethyl)(methyl)amino]-2-naphthyl}ethylidene)malononitrile]: the “reverse mutation test result” value in data set [8] is given as “positive”.
On to `CN(C)c1ccc(-c2cn3cc(I)ccc3n2)cc1` [IMPY, 6-iodo-2-[4′-(N,N-dimethylamino)phenyl]imidazo[1,2-a]pyridine], for which the “reverse mutation test result” value in data set [8] was “positive”.
In the case of `CN(C)c1ccc(-c2nc3ccc(I)cc3s2)cc1` [TZDM, 6-iodo-2-[4′-(N,N-dimethylamino)phenyl]benzothiazole], the “clearance from normal tissues” value in data set [6] is “insufficient in clearance from normal tissues”.
